Among the data in patent US20100256357A1, “HETEROCYCLES USEFUL AS INHIBITORS OF CARBONIC ANHYDRASE” (Agouron Pharmaceuticals, Inc., priority 2006, published 2010) are inhibition and IC50 values, retold here.

One assay has as its target T1, human CA-II (Homo sapiens, UniProt P00918).
T1 construct: purchased Sigma-Aldrich C6165
The assay is described as follows: Carbonic Anhydrase-II (CA-II) Fluorimetric Assay-IC50 Determination. In kind it is biochemical. The gist of the method: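 Compounds were tested as an 11-point, 1:3 dilution series in duplicate, with a top final concentration of 1 μM, in 50 mM Tris/HCl pH 7.6, 100 mM Na2SO4 and 0.005% Tween-20. Human CA-II activity was followed as the rate of fluorescein diacetate hydrolysis at 25° C, with excitation at 488 nm and emission at 538 nm.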

The next assay has as its target T2, human CA-IV (Homo sapiens, UniProt P22748).
T2 construct: made in house; host or cells: Escherichia coli BL21(DE3)
Briefly: Carbonic Anhydrase-IV (CA-IV) Fluorescence Polarization Assay-IC50 Determination. The assay is classed as binding. The settings on record: for inhibition at 0.2 µM: CA-IV Min dose 200 nM, read-out: CA-IV: % Inh @ Min dose. As for the experimental part: Carbonic Anhydrase-IV (CA-IV) Fluorescence Polarization Assay-IC50 Determination
These cells were grown in Luria broth (LB) media (Biomyx) supplemented with 800 uM ZnCl2 at 37° C. until an O.D.600 of 0.7, at which point the cells were induced with 100 uM isopropyl-beta-D-thiogalactopyranoside (IPTG) for 20 hours at 20° C. The frozen pellet was resuspended in 50mM 2-morpholinoethanesulfonic acid (MES) at pH 6.0, 100 mM NaCl, 800 uM ZnCl2 and EDTA-Free protease inhibitors (Roche). The cells were lysed with a microfluidizer, the lysate was spun at 40,000 rpm for 45 minutes at 4° C., and the soluble fraction was dialyzed overnight at 4° C. in 50 mM MES pH 6.0, and 100 mM NaCl. The soluble fraction was then put over a 100 ml SP-Sepharose High Performance (GE Healthcare) column and eluted with a 50 mM MES pH 6.0, 750 mM NaCl gradient. The peak fractions were then concentrated, via an Amicon Ultra-4 10,000 MWCO (Millipore) spin column to 2.0 mL and loaded onto a Sephacryl S-100 High Resolution (GE Healthcare) column in 25 mM tris(hydroxymethyl)aminomethane hydrochloride (Tris-HCl) pH 7.0, and 100 mM NaCl. The peak fractions were then concentrated, via an Amicon Ultra-4 10,000 MWCO (Millipore) spin column, to 7.0 mg/mL and left exposed at room temperature overnight. […] T.; et al. Carbonic Anhydrase Inhibitors. Med. Res. Rev. […]
Assays were conducted in a final volume of 100 μL in 50 mM Tris/HCl (pH 7.6), 100 mM Na2SO4 and 0.005% Tween-20 in a 96-well black assay plate.

The mark [1] stands for this setting: CA II Min dose 100 nM, read-out: CAII % Inh @ Min dose.

Where two headings read alike, the source gives them in different places.

T2 sequence (P22748 19-284 limits assumed): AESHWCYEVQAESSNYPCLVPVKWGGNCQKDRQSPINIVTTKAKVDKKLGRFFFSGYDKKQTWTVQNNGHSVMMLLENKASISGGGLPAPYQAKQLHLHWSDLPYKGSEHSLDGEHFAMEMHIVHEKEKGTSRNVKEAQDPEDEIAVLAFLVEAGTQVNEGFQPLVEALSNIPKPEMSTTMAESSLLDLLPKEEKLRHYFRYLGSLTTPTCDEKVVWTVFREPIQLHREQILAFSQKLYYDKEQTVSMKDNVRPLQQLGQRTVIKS

With `CCCCN(CC)C(=O)c1nc(Cc2ccccc2)n(-c2ccc(S(N)(=O)=O)cc2)n1` [Example R-14, 1-(4-(aminosulfonyl)phenyl]-5-benzyl-N-butyl-N-ethyl-1H-124-triazole-3-carboxamide], the inhibition at 0.1 µM at human CA-II (setting [1]) and at human CA-II (read-out: CA-II % at 100 nM) was 100% each time. The inhibition at 0.2 µM at human CA-IV was 59.7%. At human CA-IV (read-out: CA-IV IC50), the IC50 came to 215 nM. As to `NS(=O)(=O)c1ccc(-n2nc(C(=O)N3CC(Oc4ccccc4)C3)nc2Cc2ccccc2)cc1` [Example R-15, 4-(5-benzyl-3-[(3-phenoxyazetidin-1-yl)carbonyl]-1H-124-triazol-1-yl)benzenesulfonamide], the inhibition at 0.1 µM on human CA-II (setting [1]) and at human CA-II (read-out: CA-II % at 100 nM) was 96% in each case. The inhibition at 0.2 µM at human CA-IV came out at 60.9%. At human CA-IV (read-out: CA-IV IC50), the IC50 is 220 nM. For the compound `CN(CCC#N)C(=O)c1nc(Cc2ccccc2)n(-c2ccc(S(N)(=O)=O)cc2)n1` [Example R-10], the inhibition at 0.1 µM on human CA-II (setting [1]) and at human CA-II (read-out: CA-II % at 100 nM) was 99% in each case. The inhibition at 0.2 µM at human CA-IV was found to be 58%. For the same compound, the IC50 on human CA-IV (read-out: CA-IV IC50) turned out to be 202 nM. In the case of `Cc1cc(C(=O)O)nn1-c1ccc(S(N)(=O)=O)cc1` [mm-2a, 1-[4-(aminosulfonyl)phenyl]-5-methyl-1H-pyrazole-3-carboxylic acid], on human CA-IV (read-out: IC50_CAIV), the IC50 was ≥ 5000 nM. Consider `CN(Cc1cc(Cc2ccccc2)n(-c2ccc(S(N)(=O)=O)cc2)n1)C1CCCCC1` [QQ-1m, 4-(5-benzyl-3-{[cyclohexyl(methyl)amino]methyl}-1H-pyrazol-1-yl)benzenesulfonamide], for which, on human CA-IV (read-out: IC50_CAIV), the IC50 was determined as 314 nM.

In the case of `CCCN(C)Cc1cc(Cc2ccccc2)n(-c2ccc(S(N)(=O)=O)cc2)n1` [QQ-1e, 4-(5-benzyl-3-{[methyl(propyl)amino]methyl}-1H-pyrazol-1-yl)benzenesulfonamide], the IC50 at human CA-IV (read-out: IC50_CAIV) was 379 nM. Same read-out and setting: the result for `CCCCN(C)Cc1cc(Cc2ccc(Br)cc2)n(-c2ccc(S(N)(=O)=O)cc2F)n1` [QQ-1f] reads 171 nM; that for `NS(=O)(=O)c1ccc(-n2nc(CNCC3CCCCC3)cc2Cc2ccc(Cl)cc2)cc1` [QQ-1b, 4-[5-(4-chlorobenzyl)-3-{[(cyclohexylmethyl)amino]methyl}-1H-pyrazol-1-yl]benzenesulfonamide], 281 nM. On to `CCNC(=O)c1cc(C)n(-c2ccc(S(N)(=O)=O)cc2C(=O)OC(C)C)n1` [KK-1r], for which the IC50 on human CA-IV (read-out: IC50_CAIV) turned out to be 1310 nM. Consider `C[C@@H]1CN(Cc2cc(Cc3ccccc3)n(-c3ccc(S(N)(=O)=O)cc3)n2)C[C@H](C)O1` [QQ-1d, 4-(5-benzyl-3-{[(2R,6S)-2,6-dimethylmorpholin-4-yl]methyl}-1H-pyrazol-1-yl)benzenesulfonamide], for which the IC50 at human CA-IV (read-out: IC50_CAIV) turned out to be 400 nM. `CCCN(C)Cc1cc(Cc2ccccc2)n(-c2ccc(S(N)(=O)=O)cc2F)n1` [QQ-1, 4-(5-benzyl-3-{[methyl(propyl)amino]methyl}-1H-pyrazol-1-yl)-3-fluorobenzenesulfonamide]: on human CA-IV (read-out: IC50_CAIV), the IC50 turned out to be 301 nM. Same read-out and setting: as for `NS(=O)(=O)c1ccc(-n2nc(CN3CC=CCC3)cc2Cc2ccc(Br)cc2)c(F)c1` [QQ-1k, 4-[5-(4-bromobenzyl)-3-(3,6-dihydropyridin-1(2H)-ylmethyl)-1H-pyrazol-1-yl]-3-fluorobenzenesulfonamide], the figure is 253 nM; as for `NS(=O)(=O)c1ccc(-n2nc(C(F)(F)F)c3c2CCNC3)c(C(=O)NCc2ccccc2)c1` [KK-1p, 5-(aminosulfonyl)-N-benzyl-2-[3-(triflurormethyl)-4,5,6,7-tetrahydro-1H-pyrazolo[4,3-c]pyridin-1-yl]benzamide], > 5000 nM; as for `CCNC(=O)c1cc(C)n(-c2ccc(S(N)(=O)=O)cc2C(=O)NCc2ccncc2)n1` [KK-1o, 1-[4-(aminosulfonyl)-2-{[(pyridin-4-ylmethyl)amino]carbonyl}phenyl]-N-ethyl-5-methyl-1H-pyrazole-3-carboxamide], 4530 nM.

On to `NS(=O)(=O)c1ccc(-n2nc(CN3CC=CCC3)cc2Cc2ccccc2)c(F)c1` [QQ-1g, 4-[5-benzyl-3-(3,6-dihydropyridin-1(2H)-ylmethyl)-1H-pyrazol-1-yl]-3-fluorobenzenesulfonamide], for which the IC50 on human CA-IV (read-out: IC50_CAIV) was found to be 354 nM.
